Consider 34 molecules from ChEMBL document CHEMBL3988442, “University of Dundee, Small-Polar-MMV Screening Library” (2021).

The nature of assay [1]: microbe, parasite or virus in culture. The note with it: Mycobacterium tuberculosis, 96 h, read-out: pIC50 (converted).
A short description of assay [2]: microbe, parasite or virus in culture. Conditions: Mycobacterium tuberculosis, 72 h, read-out: pIC50 (converted).

In the case of `CC(=O)N1CCC(C(=O)c2ccc(C)cc2)CC1`, the IC50 is more than 501 µM in assay [1] and 100 µM in assay [2].
Take `CSc1nnc(CN(C)CCO)s1`: the IC50 is 56.6 µM in assay [1] and more than 501 µM in assay [2].
On the same counts, the results for `CCn1c(C(=O)N2CCOCC2C)cc2ccccc21` (stereo not drawn) are 303 µM and 191 µM.
The matching figures for `CC1CCCN(CC(=O)Nc2ccccc2C(N)=O)C1` (stereo not drawn): more than 501 µM and 248 µM.
On to `CC1=CCN(C(=O)c2ccsc2)CC1`, for which the IC50 was more than 501 µM in assay [1] and 160 µM in assay [2].
In the case of `CCC(C(=O)N1CCC(N)CC1)c1ccccc1` (stereo not drawn), the IC50 in assay [1] is more than 501 µM; in assay [2], 118 µM.
On the same counts, the results for `CC(C)C(=O)N1CCC(C(=O)c2ccc(O)cc2)CC1` are more than 501 µM and 5.6 µM.
On the same counts, the results for `COc1cc(C(=O)NC(C)CC#N)ccc1C` (stereo not drawn) are 184 µM and 185 µM.
The matching figures for `CN(CCc1ccccc1)CCS(=O)(=O)CCC(N)=O`: 175 µM and 442 µM.
`Cc1cccc(N2CCCC(N)C2)n1` (stereo not drawn): the IC50 in assay [1] was 150 µM; in assay [2], 119 µM.
Turning to `CCc1nnsc1C(=O)N1CCc2sccc2C1`, the IC50 was more than 501 µM in assay [1] and 176 µM in assay [2].
`COC(=O)CNC(=O)c1ccc(C)c(-n2cccc2)c1`: the IC50 in assay [1] and in assay [2] was more than 501 µM each time.
On to `O=C(NC1CCCc2ccccc21)c1ccncc1` (stereo not drawn), for which the figures for the IC50 in assay [1] and in assay [2] were more than 501 µM and 146 µM, respectively.
For `Cc1cnn(CCNCc2nccn2C)c1`, the IC50 in assay [1] was 294 µM; in assay [2], 306 µM.
The matching figures for `Cc1cc(Br)oc1C(=O)Nc1ncccc1O`: 157 µM and 322 µM.
`CCc1noc(Cn2nc(C(F)(F)F)ccc2=O)n1`: the IC50 in assay [1] was 365 µM; in assay [2], 47.8 µM.
`CN(C)c1ccc(C(=O)N(C)C2(C#N)CCC2)cc1F`: the IC50 in assay [1] and in assay [2] was more than 501 µM throughout.
On to `O=C(CCN1CCN(c2ccccn2)CC1)NC1CC1`, for which the IC50 in assay [1] and in assay [2] was more than 501 µM each time.
As for `O=C(NCc1cccs1)c1cnccn1`, the figures for the IC50 in assay [1] and in assay [2] were 80.5 µM and 33.9 µM, respectively.
Take `COCCOc1ccc(NC(=O)OCC(F)(F)F)cn1`: the IC50 in assay [1] is 110 µM; in assay [2], 208 µM.
`O=C(c1cnsn1)N1CCN(Cc2ccc(Cl)s2)CC1`: the IC50 in assay [1] was 71 µM; in assay [2], 45.6 µM.
The matching figures for `CCCNC(=O)c1ccc(C(=O)OC)cc1`: more than 501 µM and 120 µM.
The matching figures for `NC(=O)c1cnc(NC2CCc3ccccc32)c(Cl)c1` (stereo not drawn): 196 µM and 199 µM.
The matching figures for `NCC1CCCN(c2ncccn2)C1` (stereo not drawn): more than 501 µM and 288 µM.
Turning to `CCNC(=O)c1cc(N2CCCC(C)CC2)ccn1` (stereo not drawn), the IC50 is 237 µM in assay [1] and 143 µM in assay [2].
On the same counts, the results for `CCN1CCN(Cc2cc(C(C)=O)ccc2OC)CC1` are more than 501 µM and 367 µM.
On the same counts, the results for `N#CC1(NC(=O)CCc2ccc(Cl)s2)CCOCC1` are more than 501 µM and 236 µM.
Consider `CC(C)c1ccc(C(N)CNS(C)(=O)=O)cc1` (stereo not drawn), for which the IC50 in assay [1] was 268 µM; in assay [2], 202 µM.
The matching figures for `Cc1noc(CSc2ccc(C(=O)N3CCC3)cc2)n1`: more than 501 µM and more than 501 µM.
On the same counts, the results for `Cc1nn(CCN(C)c2ccccc2)c(N)c1C#N` are more than 501 µM and 265 µM.
The matching figures for `COc1cccc(C(=O)Nc2ccnn2C(C)C)c1`: more than 501 µM and 259 µM.
For the molecule `COc1c(CNCCS(C)(=O)=O)c(C(C)C)nn1C`, the IC50 in assay [1] and in assay [2] was more than 501 µM each time.
In the case of `CNC(=O)C1CCN(C(=O)CCc2cccs2)CC1`, the IC50 in assay [1] was 111 µM; in assay [2], 38.8 µM.
As for `CN(Cc1cc(Br)cs1)C(=O)CC1(N)CCC1`, the IC50 in assay [1] is more than 501 µM; in assay [2], 158 µM.
